Experimental data as given in US6887676B1 (priority 1999, dated 2005).

Tests used:
[1] = biological target: T1, type 1 PrP^Sc (Homo sapiens, UniProt P04156); assay type: biochemical; conditions: FIGS. 3e and f; for ability of selective chelator to mirror the EDTA action on type 1 PrP^Sc cleavage: 20 mM chelator, N-ethylmorpholine buffer; for cleavage pattern of type 1 PrP^Sc digested in presence of copper-selective chelator: 20 mM, intermediate between type 1 and type 2^-
[2] = tested on: amyloid Aβ protein; conditions: cited from earlier work
[3] = biological target: T1, type 1 PrP^Sc; conditions: for effectiveness in maintaining type 1 PrP^Sc conformation: 30 μM metal ion; for effect of metal ion on electrophoretic mobility of metal-depleted, proteinase K digested type 1 PrP^Sc: exposure prior to and during electrophoresis, FIG. 4b; for digestion products of type 1 PrP^Sc washed in maintained presence of metal ion: total concentrations observed in serum, FIG. 4a; for concentration at which type 1 PrP^Sc conformation could be readily maintained: washing before PK digestion
[4] = biological target: type 2 PrP^Sc (Homo sapiens, UniProt P04156); conditions: different concentrations; FIG. 4d
[5] = biological target: recombinant full length hamster PrP (Mesocricetus auratus, UniProt P04273); conditions: read-out: dissociation constant of Cu^2+ binding; cited from earlier work
recombinant full length hamster PrP, sequence (P04273 23-254 limits assumed): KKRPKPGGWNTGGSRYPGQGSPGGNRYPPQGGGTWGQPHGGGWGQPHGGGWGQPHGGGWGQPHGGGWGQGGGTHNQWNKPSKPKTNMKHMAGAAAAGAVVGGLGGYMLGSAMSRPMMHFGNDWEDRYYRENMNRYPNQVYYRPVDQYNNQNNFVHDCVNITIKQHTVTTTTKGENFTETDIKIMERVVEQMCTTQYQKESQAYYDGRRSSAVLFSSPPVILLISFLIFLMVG

Structure (SMILES): c1cnc2c(c1)ccc1cccnc12 [1, 10 phenanthroline]
- ability of selective chelator to mirror the EDTA action on type 1 PrP^Sc cleavage [1]: unable to precisely mirror this action

Structure (SMILES): [Cl-].[Cl-].[Co+2] [Co^2+]
- induction of aggregation of Aβ protein [2]: also effective
- effectiveness in maintaining type 1 PrP^Sc conformation ([3]; FIG. 4c): only Ni^2+ can effectively substitute
- cleavage pattern of type 1 PrP^Sc after washing and digestion with Co^2+ ([3]; 30 μM, FIG. 4c): intermediate pattern

Structure (SMILES): O=S(=O)([O-])[O-].[Cu+2] [Cu^2+]
- digestion products of type 2 PrP^Sc washed in maintained presence of metal ion [4]: either the original type 2 pattern of digestion products, or a new pattern of higher molecular mass cleavage fragments closely similar to those generated from untreated type 1 PrP^Sc
- induction of aggregation of Aβ protein [2]: able to induce aggregation of Aβ protein
- cleavage pattern of type 1 PrP^Sc after washing and digestion with Cu^2+ ([3]; 20 μM of range 10-25 μM, FIG. 4a lanes 6-8): migrated with a mobility similar to that of the type 2 products
- effect of metal ion on electrophoretic mobility of metal-depleted, proteinase K digested type 1 PrP^Sc [3]: had no effect
- digestion products of type 1 PrP^Sc washed in maintained presence of metal ion [3]: digestion products closely resembled those generated from untreated type 1 PrP^Sc
- concentration at which type 1 PrP^Sc conformation could be readily maintained [3]: higher concentrations of Cu^2+ were required
- Kd [5]: 14 µM

Structure (SMILES): O=C(O)CN(CCOCCOCCN(CC(=O)O)CC(=O)O)CC(=O)O [EGTA]
- ability of selective chelator to mirror the EDTA action on type 1 PrP^Sc cleavage [1]: unable to precisely mirror this action
- cleavage pattern of type 1 PrP^Sc digested in presence of copper-selective chelator [1]: intermediate pattern

Structure (SMILES): [Cl][Mn][Cl] [Mn^2+]
- effectiveness in maintaining type 1 PrP^Sc conformation ([3]; FIG. 4c): only Ni^2+ can effectively substitute

Structure (SMILES): [Cl][Ni][Cl] [Ni^2+]
- induction of aggregation of Aβ protein [2]: also effective
- effectiveness in maintaining type 1 PrP^Sc conformation ([3]; FIG. 4c): can effectively substitute

Structure (SMILES): [Cl-].[Cl-].[Zn+2] [Zn^2+]
- digestion products of type 2 PrP^Sc washed in maintained presence of metal ion [4]: either the original type 2 pattern of digestion products, or a new pattern of higher molecular mass cleavage fragments closely similar to those generated from untreated type 1 PrP^Sc
- induction of aggregation of Aβ protein [2]: able to induce aggregation of Aβ protein
- effect of metal ion on electrophoretic mobility of metal-depleted, proteinase K digested type 1 PrP^Sc [3]: had no effect
- digestion products of type 1 PrP^Sc washed in maintained presence of metal ion [3]: digestion products closely resembled those generated from untreated type 1 PrP^Sc
- concentration at which type 1 PrP^Sc conformation could be readily maintained [3]: 10 µM

Structure (SMILES): O=S(=O)(O)c1ccc(-c2ccnc3c2ccc2c(-c4ccc(S(=O)(=O)O)cc4)ccnc23)cc1 [bathophenanthroline disulfonic acid]
- ability of selective chelator to mirror the EDTA action on type 1 PrP^Sc cleavage [1]: unable to precisely mirror this action

Structure (SMILES): O=C(O)c1cccc(C(=O)O)n1 [dipicolinic acid]
- ability of selective chelator to mirror the EDTA action on type 1 PrP^Sc cleavage [1]: unable to precisely mirror this action

Structure (SMILES): Cc1ccc2ccc3ccc(C)nc3c2n1 [neocuproine]
- ability of selective chelator to mirror the EDTA action on type 1 PrP^Sc cleavage [1]: unable to precisely mirror this action

Structure (SMILES): NCCNCCNCCN [triethylenetetramine]
- ability of selective chelator to mirror the EDTA action on type 1 PrP^Sc cleavage [1]: unable to precisely mirror this action
- cleavage pattern of type 1 PrP^Sc digested in presence of copper-selective chelator [1]: intermediate pattern
